Reference: publication PMC3350798 (Journal of Medicinal Chemistry, 2012)
“Also recorded” adds a separate entry of the source. Where two headings read alike, the source gives them in different places.

What was measured:
Tdp1 [1] = target: T1, Tdp1 (Homo sapiens, UniProt Q9NUW8); conditions: cited from earlier work
Tdp1 [2] = target: T1, Tdp1; test: FRET assay, mechanism of inhibition of Tdp1; format: biochemical
Tdp1 [3] = target: T1, Tdp1; test: Surface plasmon resonance binding to amine coupled Tdp1; conditions: 33, 11, 3.7, 1.2 and 0.4 μM injected over amine coupled Tdp1
Human recombinant Top1 = target: T2, Human recombinant Top1 (Homo sapiens, UniProt P11387); test: Topoisomerase I-mediated DNA cleavage assay; format: biochemical; conditions: semiquantitative, relative to 1 μM camptothecin
T2 sequence (P11387 1-765): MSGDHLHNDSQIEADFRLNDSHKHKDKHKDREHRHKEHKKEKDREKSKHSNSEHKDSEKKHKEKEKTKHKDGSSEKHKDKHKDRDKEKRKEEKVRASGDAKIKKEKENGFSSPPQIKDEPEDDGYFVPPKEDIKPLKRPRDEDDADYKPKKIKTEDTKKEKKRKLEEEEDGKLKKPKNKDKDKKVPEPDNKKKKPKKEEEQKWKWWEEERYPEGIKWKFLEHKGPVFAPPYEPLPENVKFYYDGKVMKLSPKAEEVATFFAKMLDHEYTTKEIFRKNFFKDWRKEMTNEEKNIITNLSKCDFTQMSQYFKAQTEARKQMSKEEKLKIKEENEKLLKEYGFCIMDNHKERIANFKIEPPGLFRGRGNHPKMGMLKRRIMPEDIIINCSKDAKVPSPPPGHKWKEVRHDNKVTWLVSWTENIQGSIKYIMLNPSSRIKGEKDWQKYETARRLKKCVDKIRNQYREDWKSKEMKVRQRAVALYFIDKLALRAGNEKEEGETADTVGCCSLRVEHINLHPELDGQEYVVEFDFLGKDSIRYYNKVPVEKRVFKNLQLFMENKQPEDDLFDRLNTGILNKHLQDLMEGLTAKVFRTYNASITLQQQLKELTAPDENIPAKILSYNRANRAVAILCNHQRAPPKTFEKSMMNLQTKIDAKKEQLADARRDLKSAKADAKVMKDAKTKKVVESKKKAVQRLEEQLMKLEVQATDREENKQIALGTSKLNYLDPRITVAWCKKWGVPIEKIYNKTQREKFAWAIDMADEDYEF

[4] = tested on: 60 human cancer cell lines; conditions: read-out: MGM GI50, mean graph midpoint; cited from earlier work

T1 sequence (Q9NUW8 whole entry): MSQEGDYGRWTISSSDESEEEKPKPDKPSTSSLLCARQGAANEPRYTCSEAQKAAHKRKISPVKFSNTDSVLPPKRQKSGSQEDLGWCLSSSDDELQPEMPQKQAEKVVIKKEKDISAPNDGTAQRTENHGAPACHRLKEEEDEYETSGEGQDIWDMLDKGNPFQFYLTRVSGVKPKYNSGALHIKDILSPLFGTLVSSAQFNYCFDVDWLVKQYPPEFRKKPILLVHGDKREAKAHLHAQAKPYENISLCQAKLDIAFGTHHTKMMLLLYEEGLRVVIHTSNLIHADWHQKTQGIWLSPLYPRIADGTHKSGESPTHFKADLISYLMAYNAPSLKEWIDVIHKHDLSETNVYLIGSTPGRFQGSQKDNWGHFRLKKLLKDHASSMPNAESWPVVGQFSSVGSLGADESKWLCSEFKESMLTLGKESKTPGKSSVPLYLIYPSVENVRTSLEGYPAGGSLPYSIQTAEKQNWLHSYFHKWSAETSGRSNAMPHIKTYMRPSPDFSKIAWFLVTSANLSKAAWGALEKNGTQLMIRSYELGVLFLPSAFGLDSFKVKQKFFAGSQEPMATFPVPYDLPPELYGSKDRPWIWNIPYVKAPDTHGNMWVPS

In the case of `C[C@]12CC[C@H]3[C@@H](CCC4=CC(=O)CC[C@@]43C)[C@@H]1CC[C@@H]2C(=O)COS(=O)(=O)c1ccc(Br)cc1` [compound 7, 4-Pregnen-21-ol-3,20-dione-21-(4-bromobenzenesufonate)], the “Mechanism of inhibition of Tdp1” value (Tdp1 [1]) is listed as “competitive with the DNA substrate”.

With `Cl.NCCCn1c2c(c3ccccc3c1=O)C(=O)c1ccccc1-2` [compound 70] the “Mechanism of inhibition of Tdp1” value (Tdp1 [2]) was “competitive inhibitor” and the “Binding to Tdp1 by surface plasmon resonance” value (Tdp1 [3]) was “direct binding; also recorded: rapidly reaches equilibrium and then completely dissociates”.

With `Cl.NCCCCCCCCCCCCn1c2c(c3ccccc3c1=O)C(=O)c1ccccc1-2` [compound 79] the “Top1 (compound-induced DNA cleavage due to Top1 inhibition)” value (Human recombinant Top1) was 0/+.

For `[O]=[V]([O-])([O-])[O-]` [vanadate], the “Tdp1 inhibition” value (Tdp1 [1]) is given as “inhibition at millimolar concentrations”.

For `O=C1c2ccccc2-c2c1c1ccccc1c(=O)n2CCCNCCCNCCCn1c2c(c3ccccc3c1=O)C(=O)c1ccccc1-2` [compound 145, Bis-1,3-{(5,6-dihydro-5,11-diketo-11H-indeno[1,2-c]isoquinoline)-6-propylamino}propane Bis(trifluoroacetate)], the GI50 [4] is given as 394 nM.
